# According to patent US20220387358A1, “CERAMIDE ANALOG SACLAC MODULATES SPHINGOLIPID LEVELS AND MCL-1 SPLICING TO INDUCE APOPTOSIS IN ACUTE MYELOID LEUKEMIA” (University of Virginia Patent Foundation, priority 2019, published 2022):
# Tests used:
# KG1a cells = assay: Rescue from SACLAC-induced apoptosis by Mcl-1S knockdown; format: cell-based, human; settings: 10 μM SACLAC 48 hours; siRNA (100 nM) targeting MCL-1S vs scrambled
# Description: Apoptosis in cell lines was assessed after treating 2.5×10^5 cells per ml with drug or vehicle in a 48-well plate for the indicated time points and doses. Primary human AML cells were pre-incubated with SFEM for 48 hours before plating 2×10^5 cells in 24-well plates for the indicated times point and doses. Samples were stained using the Muse Annexin V & Dead Cell Kit (Millipore #MCH100105). Change in mitochondrial membrane potential in cell lines was measured with the Muse® MitoPotential Kit (#MCH100110, MilliporeSigma, Burlington, Mass., United States of America). Caspase activation was measured using the Muse® Caspase 3/7 Assay Kit (#MCH100108, MilliporeSigma, Burlington, Mass., United States of America). For rescue experiments, cells were plated at 2.5×10^4 well in a 96-well plate 24 hours after electroporation. Cells were treated with DMSO or SACLAC for 48 hours and apoptosis was detected as stated above. All kits were used according to manufacturer's protocol. Cells were then analyzed using the Muse® Cell Analyzer (MilliporeSigma, Burlington, Massachusetts, United States of America) (35,36). Experiments included positive and negative controls for proper analysis. […]
# HL-60/VCR = assay: Cell viability MTS assay; format: cell-based; settings: Homo sapiens, HL60/VCR; 24-hour treatment
# Description: (§1) For cell viability, cell lines were plated at 2.5×10^4 cells per well in a 96-well plate and treated with […] or DMSO vehicle (0.4% of total volume) for the indicated time points and doses. At the experiment end point, 3-(4,5-Dimethylthiazol-2-yl)-5-(3-carboxymethoxyphenyl)-2-(4-sulfophenyl)-2H-tetrazolium (MTS) Cell Proliferation Colorimetric Assay Kit (# K300-5000, BioVision, Inc., Milpitas, Calif., United States of America) reagent was added and incubated for 2 hours. Conversion of MTS to formazan product was measured by absorbance at 490 nm using a BioTek Cytation 3 plate reader (BioTeck, Winooski, Vt., United States of America). Absorbance was normalized to DMSO control, which was defined as 100% viability. Due to limited cell numbers, patient samples and normal samples were plated at 5×10^3 cells per well in a 384-well plate with […] or DMSO control for the indicated time points and doses. At the experiment end point, a luminescent reagent sold under the tradename [sequence]-GLOTM (#G7572, Promega Corporation, Madison, Wis., United States of America) was added. After 15 minutes, luminescence was read on a BioTek Cytation 3 plate reader (BioTek, Winooski, Vt., United States of America). Absorbance was normalized to DMSO control, which was defined as 100% viability.
# THP-1 = assay: Cell viability MTS assay; format: cell-based; settings: Homo sapiens, 24-hour treatment
# Description: as §1
# OCI-AML2 = assay: Cell viability MTS assay; format: cell-based; settings: Homo sapiens, 24-hour treatment
# Description: as §1
# OCI-AML2 cells = assay: Mitochondrial membrane potential (Muse MitoPotential Kit); format: cell-based, human; settings: SACLAC 5 μM; time course
# Description: Apoptosis in cell lines was assessed after treating 2.5×10^5 cells per ml with drug or vehicle in a 48-well plate for the indicated time points and doses. Primary human AML cells were pre-incubated with SFEM for 48 hours before plating 2×10^5 cells in 24-well plates for the indicated times point and doses. Samples were stained using the Muse Annexin V & Dead Cell Kit (Millipore #MCH100105). Change in mitochondrial membrane potential in cell lines was measured with the Muse® MitoPotential Kit (#MCH100110, MilliporeSigma, Burlington, Mass., United States of America). Caspase activation was measured using the Muse® Caspase 3/7 Assay Kit (#MCH100108, MilliporeSigma, Burlington, Mass., United States of America). For rescue experiments, cells were plated at 2.5×10^4 well in a 96-well plate 24 hours after electroporation. Cells were treated with DMSO or […] for 48 hours and apoptosis was detected as stated above. All kits were used according to manufacturer's protocol. Cells were then analyzed using the Muse® Cell Analyzer (MilliporeSigma, Burlington, Massachusetts, United States of America) (35,36). Experiments included positive and negative controls for proper analysis.
# acid ceramidase (AC) = biological target: T1, acid ceramidase (AC) (Homo sapiens, UniProt Q13510); assay: Acid ceramidase activity assay (RBM14C12 fluorogenic substrate) in human AML cell lines; format: cell-based; settings: SACLAC 2.5 μM, 24-hour treatment
# T1 construct: endogenous in cells; host or cells: HL-60/VCR, THP-1 and OCI-AML2 human AML cell lines
# T1 sequence (Q13510 143-395 limits assumed): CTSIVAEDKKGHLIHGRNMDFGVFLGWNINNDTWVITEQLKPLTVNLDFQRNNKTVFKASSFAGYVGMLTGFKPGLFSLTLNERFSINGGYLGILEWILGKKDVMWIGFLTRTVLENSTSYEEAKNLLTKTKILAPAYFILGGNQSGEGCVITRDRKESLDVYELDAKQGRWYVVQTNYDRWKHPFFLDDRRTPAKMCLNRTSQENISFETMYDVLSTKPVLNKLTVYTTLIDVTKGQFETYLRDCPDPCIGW
# T1 sequence (Q13510 22-142 limits assumed): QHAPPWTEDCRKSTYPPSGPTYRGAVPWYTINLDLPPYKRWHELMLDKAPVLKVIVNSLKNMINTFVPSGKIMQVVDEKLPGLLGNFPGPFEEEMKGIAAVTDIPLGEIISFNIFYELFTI
# Description: Cells were seeded at 2×10^4 cells per well in 50 μl Acid ceramidase activity was measured at 24 hours using the RBM14C12 fluorogenic substrate as previously described (22,34).
# [1] = Solubility in vehicles for i.v. drug delivery; format: physicochemical
smiles,measurement,setting,value
"CCCCCCCCCCCCCCC[C@@H](O)[C@H](CO)NC(=O)CCl [SACLAC, N-[(2S,3R)-1,3-dihydroxyoctadecan-2-yl]2-chloroacetamide]","apoptosis induction reduced by, in Mcl-1S knockdown cells",KG1a cells,36%
same,EC50,HL-60/VCR,3300 nM
same,EC50,THP-1,2600 nM
same,EC50,OCI-AML2,1800 nM
same,loss of mitochondrial membrane potential,OCI-AML2 cells,occurred in parallel with positive staining for the apoptosis marker annexin V
same,AC activity reduced by,acid ceramidase (AC); HL-60/VCR,98%
same,AC activity reduced by,acid ceramidase (AC); OCI-AML2,100%
same,AC activity reduced by,acid ceramidase (AC); THP-1,71%
same,solubility in vehicles for i.v. drug delivery,[1],low solubility
